Test results as given in patent publication US20130065227A1, “METHODS OF INCREASING MACROPINOCYTOSIS IN CANCER CELLS” (priority 2010, published 2013).

Legend:
MCF7 [1] = assay: Uptake of AS1411 by macropinocytosis (MP); format: cell-based; conditions: MCF7; Cancer, breast
Text: (§1) There was little effect of amiloride treatment on uptake of FL-CRO in either DU145 cancer cells or non-malignant Hs27 cells (FIG. 9B). […] These studies also confirmed the previous results that there was higher overall uptake of FL-AS1411 in Hs27 cells than in DU145 cells.
(§2) It has recently been discovered that AS1411 can stimulate macropinocytosis (MP) in cancer cells and this finding was verified by several different methods and in multiple cancer cell lines (Table 1).

MDA-MB-231 [2] = assay: Uptake of AS1411 by macropinocytosis (MP); format: cell-based; conditions: MDA-MB-231; Cancer, breast
Text: as §1, §2

Hs27 = assay: Stimulation of macropinocytosis (dextran uptake); format: cell-based, human; conditions: Hs27; Non-cancer, skin fibroblasts
Description: (Panel A) DU145 cells were treated with 10 μM tAS1411 or 10 μM tCRO or no oligonucleotide in complete DMEM medium at 37° C. for the time indicated. After treatment, cell medium was changed for fresh complete medium containing 0.2 mg/ml dextran-10K labeled with Alexa Fluor 488, and cells were incubated for 30 min at 37° C. After incubation, cells were harvested and analyzed by flow cytometry to determine dextran uptake. (Panel B) The same experiment was performed using Hs27 cells. (Panel C) DU145 cells were treated with 10 μM tAS1411 or 10 μM tCRO or no oligonucleotide in complete DMEM medium at 37° C. for 48 h. […]
(§3) AS1411 causes a change in cancer cell morphology that is characterized by vacuolization, irregular nuclei, and swollen cells (Xu et al., 2001, J. Biol. Chem., 276:43221-30). […] To test this idea, DU145 cells were pre-treated for 24 h with tAS1411, then added FL-AS1411 and evaluated uptake after an additional 2 h using flow cytometry. […] This idea is not necessarily inconsistent with the time course data shown in FIG. 1A because the fluorescence signal may decrease over time for a number of reasons, including exocytosis of the ligand and fluorescence quenching due to protein binding or environmental factors (the fluorophore used for flow cytometry is particularly sensitive to acidic environments). […]

MCF10A = assay: Stimulation of macropinocytosis (dextran uptake); format: cell-based, human; conditions: MCF10A; Non-cancer, breast epithelial
Description: FIG. 10 are graphs showing the stimulation of macropinocytosis by GROs. Breast carcinoma cells (MDA-MB-231, MCF-7) or non-malignant breast epithelial cells (MCF10A) cells were plated 18 hr before treatment with 10 μM tAS1411 or 10 μM tCRO or water in complete DMEM medium at 37° C. for 48 hr or 72 hr. After treatment, cell medium was changed for fresh complete medium containing 0.2 mg/ml dextran-10K labeled with Alexa Fluor 488 and cells were incubated for 30 min at 37° C. Cells were then incubated on ice with 1 mg/ml PI in PBS, harvested, and analyzed by flow cytometry. Uptake was normalized to no pre-treatment controls and bars show the mean and SE of three independent experiments. […]
as §3

A549 = assay: Stimulation of macropinocytosis (dextran uptake); format: cell-based; conditions: Cancer, non-small cell lung
Text: as §2

BEAS2B = assay: Stimulation of macropinocytosis (dextran uptake); format: cell-based; conditions: Non-cancer, lung epithelial
Text: as §2

CHO = assay: Stimulation of macropinocytosis (dextran uptake); format: cell-based; conditions: Non-cancer, hamster ovary
Text: as §2

RCC4 = assay: Stimulation of macropinocytosis (dextran uptake); format: cell-based; conditions: Cancer, renal cell
Text: as §2

RWPE1 = assay: Stimulation of macropinocytosis (dextran uptake); format: cell-based; conditions: Non-cancer, prostate epithelial
Text: as §2

SK-N-DZ = assay: Stimulation of macropinocytosis (dextran uptake); format: cell-based; conditions: Cancer, neuroblastoma
Text: as §2

MCF7 [3] = assay: Stimulation of macropinocytosis (dextran uptake); format: cell-based; conditions: MCF7; Cancer, breast
Description: (§4) FIG. 10 are graphs showing the stimulation of macropinocytosis by GROs. Breast carcinoma cells (MDA-MB-231, MCF-7) or non-malignant breast epithelial cells (MCF10A) cells were plated 18 hr before treatment with 10 μM tAS1411 or 10 μM tCRO or water in complete DMEM medium at 37° C. for 48 hr or 72 hr. After treatment, cell medium was changed for fresh complete medium containing 0.2 mg/ml dextran-10K labeled with Alexa Fluor 488 and cells were incubated for 30 min at 37° C. Cells were then incubated on ice with 1 mg/ml PI in PBS, harvested, and analyzed by flow cytometry. Uptake was normalized to no pre-treatment controls and bars show the mean and SE of three independent experiments.
(§5) To analyze uptake of the oligodeoxynucleotides or dextran-10K (macropinocytic marker) by flow cytometry, 2×10^5 cells in fresh supplemented culture medium (2.5 ml) were plated into 6-well plates for 18 h. After complete adhesion, the cells were incubated with 5′-FAM tagged oligodeoxynucleotides or Alexa Fluor 488 tagged dextran-10K and incubated as indicated in the Description of the Drawings. Cells were washed once with ice-cold PBS, incubated with 1 μg/ml 7-amino-actinomycin D (7-AAD) for 5 min on ice or 1 μg/ml propidium iodide (PI), and washed twice with ice-cold PBS. Cells were then treated with 0.01% trypsin/0.5 mM EDTA (300 μl) for 3 min prior addition 3 ml supplemented culture medium. The cells were then centrifuged and resuspended in 0.5 ml of 1% paraformaldehyde for analysis by flow cytometry using a FACScalibur cytometer (BD Biosciences, Mountain View, Calif.).
(§6) AS1411 causes a change in cancer cell morphology that is characterized by vacuolization, irregular nuclei, and swollen cells (Xu et al., 2001, J. Biol. Chem., 276:43221-30). Therefore, the effect of AS1411 on macropinocytosis in DU145 cells and non-malignant Hs27 cells was investigated. […] As in all of the flow cytometry experiments, cells were gated to exclude permeable cells, discounting the possibility that this increase was due to cell death. […] One implication of the finding that AS1411 causes hyperstimulation of macropinocytosis is that treatment of AS1411 might actually promote its own internalization by cancer cells. To test this idea, DU145 cells were pre-treated for 24 h with tAS1411, then added FL-AS1411 and evaluated uptake after an additional 2 h using flow cytometry. […] This idea is not necessarily inconsistent with the time course data shown in FIG. 1A because the fluorescence signal may decrease over time for a number of reasons, including exocytosis of the ligand and fluorescence quenching due to protein binding or environmental factors (the fluorophore used for flow cytometry is particularly sensitive to acidic environments). […]

MDA-MB-231 [4] = assay: Stimulation of macropinocytosis (dextran uptake); format: cell-based; conditions: MDA-MB-231; Cancer, breast
Description: as §4, §5, §6

DU145 cells = format: cell-based; conditions: 4 days, 10 μM AS1411
Description: DU145 cells were incubated for 4 days in the presence of 10 μM AS1411 with 3-MA at the concentration indicated, and cell number was assessed by MTT assay.
It also appears unlikely that AS1411-induced cell death is due to autophagy. […] Further evidence that supports the idea that AS1411 can induce methuosis comes from the similarity between the appearance of cells treated with AS1411 and published images of glioblastoma cells undergoing Ras-induced methuosis.

5′-d(GGTGGTGGTGGTTGTGGTGGTGGTGG) [AS1411]
Update by MP? (MCF7 [1]): Yes
Update by MP? (MDA-MB-231 [2]): Yes
Stimulate MP? (Hs27): No
Stimulate MP? (MCF10A): No
Stimulate MP? (A549): Yes
Stimulate MP? (BEAS2B): No
Stimulate MP? (CHO): No
Stimulate MP? (RCC4): Yes
Stimulate MP? (RWPE1): No
Stimulate MP? (SK-N-DZ): Yes
Stimulate MP? (MCF7 [3]): Yes
Stimulate MP? (MDA-MB-231 [4]): Yes
effect in combination with 3-MA (DU145 cells): additive
